Patent US7271195B2, “Carbonyl compounds as inhibitors of histone deacetylase for the treatment of disease” (Kalypsys, Inc., priority 2003, dated 2007)
pIC50: −log10 of the molar value. Where two headings read alike, the source gives them in different places.

Key:
HDAC [1] = tested on: T1, HDAC; assay: In vitro HDAC-inhibition assay (Fluor de Lys fluorescent substrate); assay type: biochemical; settings: for pIC50: in vitro HDAC enzyme source; for % Max Inhibition (in vitro): maximum inhibition
T1 construct: in vitro IC50; other: in vitro HDAC enzyme source
Procedure: In vitro HDAC-inhibition Assay:
This assay measures a compound's ability to inhibit acetyl-lysine deacetylation in vitro and was used as both a primary screening method as well as for IC50 determinations of confirmed inhibitors. The assay is performed in vitro using an HDAC enzyme source (e.g. partially purified nuclear extract or immunopurified HDAC complexes) and a proprietary fluorescent substrate/developer system (HDAC Quantizyme Fluor de Lys Fluorescent Activity Assay, BIOMOL). The assay is run in 1,536-well Greiner white-bottom plates using the following volumes and order of addition:
Step 1: Enzyme (2.5 ul) source added to plate (from refrigerated container) • Step 2: Compounds (50 nl) added with pin transfer device • Step 3: Fluor de Lys (2.5 ul) substrate added, incubate at RT, 30 minutes • Step 4: Developer (5 ul) solution is added (containing TSA), to stop reaction • Step 5: Plate Reader—data collection
The deacetylated fluorophore is excited with 360 nm light and the emitted light (460 nm) is detected on an automated fluorometric plate reader (Aquest, Molecular Devices).

[2] = tested on: HDAC in cells (cellular histone acetylation levels); assay: Cellular histone hyperacetylation assay (cytoblot), cellular HDAC inhibition; assay type: cell-based; settings: for Cellular IC50 / pIC50: "active" = inhibitory activity but cellular IC50 could not be determined; for Emax / % Max. Inhibition (cellular): maximum inhibition; for Emax: read-out: % Max. Inhibition (cellular)
Procedure: Cellular Histone Hyperacetylation Assays:
These two secondary assays evaluates a compound's ability to inhibit HDAC in cells by measuring cellular histone acetylation levels. The cytoblot facilitates quantitative EC50 information for cellular HDAC inhibition. Transformed cell lines (e.g. HeLa, A549, MCF-7) are cultured under standard media and culture conditions prior to plating.
Cells (approx. 2,500/well) are allowed to adhere 10-24 hours to wells of a 384-well Greiner PS assay plate in media containing 1-5% serum. Cells are treated with appropriate compound and specific concentrations for 0 to 24 hours. Cells are washed once with PBS (60 ul) and then fixed (95% ethanol, 5% acetic acid or 2% PFA) for 1 minute at RT (30 ul). Cells are blocked with 1% BSA for 1 hour and washed and stained with antibody (e.g. anti-Acetylated Histone H3, Upstate Biotechnology), followed by washing and incubation with an appropriate secondary antibody conjugated to HRP or fluorophore. For luminescence assays, signal is generated using Luminol substrate (Santa Cruz Biotechnology) and detected using an Aquest plate reader (Molecular Devices).

HDAC [3] = settings: published value for positive control; read-out: published in vitro IC50; cited from earlier work

| pIC50 (HDAC [1]) | Cellular IC50 [2] | pIC50 [2] | Compound | % Max Inhibition (in vitro) (HDAC [1]) [%] | Emax [2] [%] | % Max. Inhibition (cellular) [2] [%] | pIC50 (HDAC [3]) |
| --- | --- | --- | --- | --- | --- | --- | --- |
| > 6.00 | active | – | N#CSCC(=O)c1ccc2c(c1)OCCO2 [Compound 5] | >75 | – | – | – |
| 5.00 to 6.00 | – | 5.00 to 6.00 | CC(=O)Nc1ccc(S(=O)(=O)Nc2ccc(C(=O)CSC3=NCCS3)cc2)cc1 [Compound 29, N-(4-{4-[2(4,5-Dihydro-thiazol-2-ylsulfanyl)-acetyl]-phenylsulfamoyl}-phenyl)-acetamide] | >75 | > 75 | – | – |
| < 5.00 | – | 5.00 to 6.00 | CC(=O)Nc1ccc(C(=O)CSC2=NCCS2)cc1 [Compound 21] | >75 | > 75 | – | – |
| > 6.00 | active | – | N#CSCC(=O)c1ccc(F)c(F)c1 [Compound 2] | >75 | – | – | – |
| > 6.00 | – | 5.00 to 6.00 | Cc1cc(C(=O)CSC#N)ccc1Cl [Compound 4] | >75 | > 75 | – | – |
| < 5.00 | – | 5.00 to 6.00 | Nc1ccccc1NC(=O)c1ccc(CNC(=O)OCc2cccnc2)cc1 [MS-275, reference compound] | >50 | – | >75 | – |
| 5.00 to 6.00 | – | 5.00 to 6.00 | O=C(CSC1=NCCS1)c1ccc(Cl)c(Cl)c1 [Compound 15] | >75 | > 75 | – | – |
| > 6.00 | – | < 5.00 | O=C1CSC(SCC(=O)c2ccc(Br)cc2)=N1 [Compound 33] | >75 | > 75 | – | – |
| < 5.00 | active | – | O=C(CSC1=NCCS1)c1ccc(Cl)cc1 [Compound 17] | >75 | – | – | – |
| 5.00 to 6.00 | – | < 5.00 | COc1cccc(C(=O)CS)c1 [Compound 42] | >75 | > 75 | – | – |
| > 6.00 | – | > 6.00 | CC(=O)SCC(=O)c1ccc(NS(=O)(=O)c2ccc(OC(F)(F)F)cc2)cc1 [Compound 48, Thioacetic acid S-{2-oxo-2-[4-(4-trifluoromethoxy-benzenesulfonylamino)-phenyl]-ethyl}ester] | >75 | > 75 | – | – |
| < 5.00 | – | 5.00 to 6.00 | CCN(CC)c1ccc(C(=O)CSC2=NCCS2)cc1 [Compound 22] | <50 | < 50 | – | – |
| > 6.00 | active | – | N#CSCC(=O)c1cccc(Br)c1 [Compound 8] | >75 | – | – | – |
| < 5.00 | active | – | COc1ccc(C(=O)CSC2=NCCS2)cc1OC [Compound 25] | <50 | – | – | – |
| < 5.00 | – | < 5.00 | O=C(CSC1=NCCS1)c1ccccc1 [Compound 14, 2-(4,5-Dihydro-thiazol-2-ylsulfanyl)-1-phenyl-ethanone] | >75 | < 50 | – | – |
| < 5.00 | active | – | O=C(CSC1=NCCS1)c1ccc(Br)cc1 [Compound 18] | >75 | – | – | – |
| < 5.00 | active | – | COc1ccc(C(=O)CSC2=NCCS2)cc1 [Compound 23] | >50 | – | – | – |
| 5.00 to 6.00 | active | – | COc1ccc(C(=O)CSC#N)cc1 [Compound 10] | >75 | – | – | – |
| > 6.00 | active | – | COc1cccc(C(=O)CSC#N)c1 [Compound 9] | >75 | – | – | – |

| pIC50 (HDAC [1]) | Cellular IC50 [2] | pIC50 [2] | Compound | % Max Inhibition (in vitro) (HDAC [1]) [%] | Emax [2] [%] | % Max. Inhibition (cellular) [2] [%] | pIC50 (HDAC [3]) |
| --- | --- | --- | --- | --- | --- | --- | --- |
| > 6.00 | – | 5.00 to 6.00 | N#CSCC(=O)c1ccc(Cl)cc1 [Compound 6] | >75 | > 75 | – | – |
| < 5.00 | active | – | O=C(CSC1=NCCS1)c1ccc(N2CCCC2)cc1 [Compound 24] | >50 | – | – | – |
| 5.00 to 6.00 | active | – | O=C(CSC1=NCCS1)c1cccc(Br)c1 [Compound 16] | >75 | – | – | – |
| < 5.00 | active | – | COc1cccc(C(=O)CSC2=NCCS2)c1 [Compound 20] | >75 | – | – | – |
| > 6.00 | – | < 5.00 | O=C1CSC(SCC(=O)c2ccccc2)=N1 [Compound 32] | >75 | > 50 | – | – |
| 5.00 to 6.00 | – | > 6.00 | COc1ccc(S(=O)(=O)Nc2ccc(C(=O)CSC3=NCCS3)cc2)cc1OC [Compound 26, N-{4-[2-(4,5-Dihydro-thiazol-2-ylsulfanyl)-acetyl]-phenyl}-3,4-dimethoxy-benzenesulfonamide] | >75 | > 75 | – | – |
| > 6.00 | – | 5.00 to 6.00 | N#CSCC(=O)c1ccc(Cl)c(Cl)c1 [Compound 3] | >75 | 104 | – | – |
| 5.00 to 6.00 | active | – | N#CSCC(=O)c1ccccc1 [Compound 1, 1-Phenyl-2-thiocyanato-ethanone] | >75 | – | – | – |
| > 6.00 | active | – | O=C(CS)c1ccc(Br)cc1 [Compound 41, 1-(4-Bromo-phenyl)-2-mercapto-ethanone] | >75 | > 75 | – | – |
| 5.00 to 6.00 | – | 5.00 to 6.00 | COc1ccc(S(=O)(=O)Nc2cccc(C(=O)CSC3=NCCS3)c2)cc1OC [Compound 30] | >75 | > 75 | – | – |
| > 6.00 | – | 5.00 to 6.00 | CC(=O)Nc1ccc(C(=O)CSC#N)cc1 [Compound 7] | >75 | > 75 | – | – |
| < 5.00 | – | 5.00 to 6.00 | O=C(CSC1=NCCS1)c1ccc2c(c1)OCCO2 [Compound 19] | >75 | > 50 | – | – |
| > 6.00 | – | 5.00 to 6.00 | O=C1CSC(SCC(=O)c2ccc3c(c2)OCCO3)=N1 [Compound 34, 2-[2-(2,3-Dihydro-benzo[1,4]dioxin-6-yl)-2-oxo-ethylsulfanyl]-thiazol-4-one] | >75 | > 75 | – | – |
| 5.00 to 6.00 | – | 5.00 to 6.00 | O=C(CSC1=NCCS1)c1ccc(NS(=O)(=O)c2ccc(OC(F)(F)F)cc2)cc1 [Compound 27, N-{4-[2-(4,5-Dihydro-thiazol-2-ylsulfanyl)-acetyl]-phenyl}-4-trifluoromethoxy-benzenesulfonamide] | >75 | > 75 | – | – |
| 5.00 to 6.00 | – | 5.00 to 6.00 | O=C(CSC1=NCCS1)c1cccc(NS(=O)(=O)c2ccc(OC(F)(F)F)cc2)c1 [Compound 31] | >75 | > 75 | – | – |
| 5.00 to 6.00 | – | – | COc1ccc(C(=O)CSC#N)cc1OC [Compound 12] | >75 | – | – | – |
| > 6.00 | – | > 6.00 | CC(/C=C/C(=O)NO)=C\[C@@H](C)C(=O)c1ccc(N(C)C)cc1 [TSA, reference compound] | 100 | – | 100 | 8.22 to 8.52 |
| > 6.00 | – | > 6.00 | O=C(CSSCC(=O)c1ccc(NS(=O)(=O)c2ccc(OC(F)(F)F)cc2)cc1)c1ccc(NS(=O)(=O)c2ccc(OC(F)(F)F)cc2)cc1 [Compound 47, Thioacetic acid S-{2-oxo-2-[4-(4-trifluoromethoxy-benzenesulfonylamino)-phenyl]-ethyl}disulfide] | >75 | > 75 | – | – |

| Compound | pIC50 (HDAC [1]) | Cellular IC50 [2] | pIC50 [2] | % Max Inhibition (in vitro) (HDAC [1]) [%] | Emax [2] [%] | % Max. Inhibition (cellular) [2] [%] | pIC50 (HDAC [3]) |
| --- | --- | --- | --- | --- | --- | --- | --- |
| N#CSCC(=O)c1ccc(N2CCCC2)cc1 [Compound 11] | 5.00 to 6.00 | active | – | >50 | – | – | – |
| CCN(CC)c1ccc(C(=O)CSC#N)cc1 [Compound 13] | 5.00 to 6.00 | active | – | >75 | – | – | – |
| C[C@@H]1NC(=O)[C@H]2CCCN2C(=O)[C@H](CCCCCC(=O)[C@@H]2CO2)NC(=O)[C@@H](C)NC1=O [HC-toxin, reference compound] | > 6.00 | – | – | >75 | – | – | – |
